What all share (test): NCI-60 cell line screen, 48 h
In experiment [1] the test system is OVCAR-4 ovarian.
Experiment [2] deals with PC-3 prostate.
For experiment [3], the system named is SK-OV-3 ovarian.
Experiment [4] deals with SF-539 CNS.
Experiment [5] has as its system LOX IMVI melanoma.
The test system of experiment [6] is UO-31 renal.
Experiment [7] concerns CAKI-1 renal.
For experiment [8], the system named is TK-10 renal.
Experiment [9] has as its system OVCAR-8 ovarian.
Experiment [10] concerns KM12 colon.
The test system of experiment [11] is HCC-2998 colon.
In experiment [12] the test system is NCI-H23 lung.
For experiment [13], the system named is OVCAR-3 ovarian.
Experiment [14] relates to T-47D breast.
Experiment [15] concerns EKVX NSCLC.
The subject of experiment [16] is SF-295 CNS.
For experiment [17], the system named is SNB-19 CNS.
The test system of experiment [18] is A549 NSCLC.
For experiment [19], the system named is MOLT-4 leukemia.
The subject of experiment [20] is HCT-15 colon.

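The compound was tested at five concentrations on cells cultured in 96-well plates, with a 48-hour exposure period. TGI denotes the concentration required for complete inhibition of growth.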 Where a SMILES comes first, the peptide text is derived from it. [ ]: non-standard residue; d: D form. The star is where a group is joined. ξ: configuration not given here. ξW = NC(Cc1c[nH]c2ccccc12)C(=O)O; X30 = O=C(O)[C@H]1CCC[C@H]1N*; ξF = NC(Cc1ccccc1)C(=O)O; Boc = CC(C)(C)OC(=O)*; ξK = NCCCCC(N)C(=O)O; ξT = CC(O)C(N)C(=O)O; tBu = CC(C)(C)* A value given as a limit tells only on which side of the number the result lay.

The results in this text go back to PubChem BioAssay (NCI).

As for `Cc1ccc(N=Nc2c(C)nn(C(=O)CC(=O)Nc3ccc(Cl)cc3)c2C)cc1C`, the TGI in experiment [1] is > 100 µM; in experiment [2], > 100 µM; in [3], 51.2 µM; in [4] it was > 100 µM; in [5], > 100 µM; in experiment [6], > 100 µM. The TGI in experiment [7], in [8], in [9], in [10], in experiment [11] and in experiment [12] was > 100 µM throughout. The TGI in experiment [13], in experiment [14], in experiment [15], in [16], in experiment [17] and in experiment [18] was > 100 µM throughout. This compound also yielded a TGI in experiment [19] of 66 µM.

Regarding `CC1C(=O)CC[C@@]2(C)C(=O)CCCC12O` (stereo partly specified), the TGI in experiment [1], in [20], in experiment [2], in experiment [3], in experiment [4] and in [5] was > 100 µM in each case. Also, the TGI in [6], in experiment [7], in [8], in experiment [10], in [11] and in experiment [12] was > 100 µM in each case. In addition, the TGI in [13], in experiment [14], in [15], in [16], in experiment [17] and in [18] was > 100 µM each time. In addition, the TGI in [19] is > 100 µM.

For the compound `O=C(Oc1ccc(OC(Oc2ccccc2)c2ccccc2)cc1)c1ccccc1` (stereo unspecified), the TGI in [1], in experiment [2], in [3], in experiment [4], in [5] and in experiment [6] was > 31.6 µM in each case. For the same compound, the TGI in [8] was > 31.6 µM; in [9] it was > 31.6 µM; in [10] it was > 31.6 µM; in [11], 22 µM; in [12], 24.4 µM; in experiment [13], > 31.6 µM. In addition, the TGI in experiment [14] was > 100 µM; in experiment [15], > 31.6 µM; in experiment [16], 25.8 µM; in [17] it was > 31.6 µM; in experiment [18], > 31.6 µM; in [19], > 31.6 µM.

For the compound `CN1CC(S(=O)(=O)c2ccccc2)CC(S(=O)(=O)c2ccccc2)C1c1ccccc1` (stereo unspecified), the TGI is 34.5 µM in experiment [1]; 32.2 µM in experiment [20]; 27.1 µM in experiment [2]; > 100 µM in experiment [3]; 36.9 µM in [4]; 29.7 µM in experiment [5]. The TGI was 29.4 µM in experiment [6]; 26 µM in experiment [7]; 28 µM in experiment [8]; > 100 µM in experiment [9]; 38.7 µM in [10]; 30.3 µM in [11]. Moreover, the TGI in experiment [13] is 27.8 µM; in experiment [14], 50.6 µM; in [15] it was 32.6 µM; in experiment [16], > 100 µM; in experiment [17], 59.6 µM; in [18], > 100 µM. The TGI in experiment [19] was > 100 µM.

As to `C=CCN(c1cc(OCc2ccccc2)c2c(c1)c(C)cn2S(=O)(=O)c1ccccc1)S(C)(=O)=O`, the TGI in experiment [1], in experiment [20], in [2], in experiment [3], in experiment [4] and in [5] was > 100 µM each time. The TGI in [7], in experiment [8], in experiment [9], in experiment [10], in experiment [11] and in experiment [12] was > 100 µM in each case. Further, the TGI in [13], in experiment [14], in experiment [15], in experiment [16], in [17] and in [18] was > 100 µM each time. Moreover, the TGI in experiment [19] is > 100 µM.

In the case of `O=C1CCCCCCCCCCC1CN(Cc1ccccc1)Cc1ccccc1` (stereo unspecified), the TGI in experiment [1] is > 100 µM; in [20], > 100 µM; in experiment [2], > 100 µM; in experiment [3], > 100 µM; in [4] it was > 100 µM; in experiment [5] it was 69.4 µM. In addition, the TGI was > 100 µM in [6]; > 100 µM in experiment [8]; > 100 µM in [9]; > 100 µM in [10]; 85.8 µM in experiment [11]; > 100 µM in [12]. The TGI in experiment [13] is > 100 µM; in experiment [14] it was 63.9 µM; in [15], > 100 µM; in [16], > 100 µM; in [17], > 100 µM; in experiment [18] it was > 100 µM. Besides, the TGI in experiment [19] came out at 62.5 µM.

For the compound `CC(OC(C)(C)C)C(NC(=O)C(CCCCNC(=O)OC(C)(C)C)NC(=O)C(Cc1c[nH]c2ccccc12)NC(=O)C(N)Cc1ccccc1)C(=O)NC(Cc1ccccc1)C(=O)N[C@@H]1CCC[C@@H]1C(=O)O` (stereo partly specified) (H-[ξF][ξW][ξK](Boc)[ξT](tBu)[ξF]-X30), the TGI in experiment [1] was > 100 µM; in [2] it was > 100 µM; in experiment [3], > 100 µM; in [4] it was 36.5 µM; in experiment [5] it was 60 µM; in experiment [6] it was > 100 µM. The TGI in experiment [7] is > 100 µM; in experiment [9], > 100 µM; in experiment [10], 37.2 µM; in experiment [11], 41.1 µM; in experiment [12], > 100 µM; in [13], > 100 µM. Also, the TGI in experiment [14] was > 100 µM; in experiment [15], > 100 µM; in experiment [16], > 100 µM; in experiment [17], 51.2 µM; in experiment [18] it was > 100 µM; in [19], > 100 µM.
